Data as given in patent publication US20230050398A1, “METHODS FOR INCREASING SHELF-LIFE OF OPHTHALMIC PHARMACEUTICAL COMPOSITIONS” (Harrow IP, LLC, priority 2021, published 2023).
One block for each molecule: values may come before it.

Experiments:
Format in all cases: physicochemical
[1] = Stability of ophthalmic pharmaceutical composition of Example 2: amount of active ingredient by UHPLC; settings: Example 2 composition; for Pass/Fail: 25° C., acceptance 90-110% of label claim (bromfenac, moxifloxacin), 90-115% (prednisolone acetate); for % Label Claim / Amount Found: stored at 25° C.
Experimental: (§1) The stability of an ophthalmic pharmaceutical composition made by the method of the present disclosure was studied and confirmed by the Compounder's International Analytical Laboratory. The data collected included the concentration of the active ingredients in the composition, the pH, and the appearance, color, and odor of the composition. The amount of active ingredient in the ophthalmic pharmaceutical composition was determined by ultra high performance liquid chromatography (UHPLC). The composition was stored at 25° C. The composition comprised the active ingredients bromfenac, moxifloxacin, and prednisolone acetate. The composition was considered stable if it contained 90-110% of the label claim of bromfenac and moxifloxacin and 90-115% of the label claim of prednisolone acetate. pH was determined according to USP 791, incorporated by reference herein. Additionally, the container enclosure was tested at baseline according to USP 1207 and 381, incorporated by reference herein. No blue dye was observed via UV-Vis spectrophotometry.
A sample of the composition was provided on May 28, 2021. […] 7, 2021.

[2] = Stability of comparator composition (Example 3): amount of active ingredient by UHPLC; settings: for Pass/Fail: 25° C., acceptance 90-110% of label claim (bromfenac, moxifloxacin), 90-115% (prednisolone acetate); for % Label Claim (Potency) / Amount Found: stored at 25° C.
Experimental: The data collected included the concentration of the active ingredients in the composition. The amount of active ingredient in the composition was determined by ultra high performance liquid chromatography (UHPLC). The comparator composition was stored at 25° C. The composition comprised the active ingredients bromfenac, moxifloxacin, and prednisolone acetate.
A sample of the composition was provided on Nov.

[3] = Stability of ophthalmic pharmaceutical composition of Example 1: amount of active ingredient by UHPLC; settings: Example 1 composition; for Pass/Fail: 25° C., acceptance 90-110% of label claim (bromfenac, moxifloxacin), 90-115% (prednisolone acetate); for % Label Claim / Amount Found: stored at 25° C.
Experimental: as §1, with “acetate.” for “acetate. pH was determined according to USP 791, incorporated by reference herein. Additionally, the container enclosure was tested at baseline according to USP 1207 and 381, incorporated by reference herein. No blue dye was observed via UV-Vis spectrophotometry.”
A sample of the composition was provided on Jul. 31, 2020. […] 21, 2020.

Pass/Fail ([1]; after 90 days): Pass | Pass/Fail ([1]; after 180 days): Pass | Pass/Fail ([1]; after 270 days): Pass | Pass/Fail ([1]; after 300 days): Pass | Pass/Fail ([1]; after 365 days): Pass | Pass/Fail ([1]; baseline): Pass | % Label Claim ([1]; after 90 days): 98.0% | Amount Found ([1]; after 90 days): 0.9805% | % Label Claim ([1]; after 180 days): 98.8% | Amount Found ([1]; after 180 days): 0.9883% | % Label Claim ([1]; after 270 days): 97.4% | Amount Found ([1]; after 270 days): 0.9743% | % Label Claim ([1]; after 300 days): 99.5% | Amount Found ([1]; after 300 days): 0.9954% | % Label Claim ([1]; after 365 days): 99.6% | Amount Found ([1]; after 365 days): 0.9960% | % Label Claim ([1]; baseline): 102.4% | Amount Found ([1]; baseline): 1.024% | Pass/Fail ([2]; after 30 days): Pass | Pass/Fail ([2]; after 60 days): Pass | Pass/Fail ([2]; after 90 days): Pass | Pass/Fail ([2]; after 120 days): Pass | Pass/Fail ([2]; after 150 days): Pass | Pass/Fail ([2]; after 180 days): Pass | Pass/Fail ([2]; baseline): Pass | % Label Claim (Potency) ([2]; after 30 days): 97.8% | Amount Found ([2]; after 30 days): 0.978% | % Label Claim (Potency) ([2]; after 60 days): 90.0% | Amount Found ([2]; after 60 days): 0.9001% | % Label Claim (Potency) ([2]; after 90 days): 99% | Amount Found ([2]; after 90 days): 0.9885% | % Label Claim (Potency) ([2]; after 120 days): 95% | Amount Found ([2]; after 120 days): 0.9505% | % Label Claim (Potency) ([2]; after 150 days): 93% | Amount Found ([2]; after 150 days): 0.926% | % Label Claim (Potency) ([2]; after 180 days): 91% | Amount Found ([2]; after 180 days): 0.907% | % Label Claim (Potency) ([2]; baseline): 98.4% | Amount Found ([2]; baseline): 0.984% | Pass/Fail ([3]; after 90 days): Pass | Pass/Fail ([3]; after 120 days): Pass | Pass/Fail ([3]; after 180 days): Pass | Pass/Fail ([3]; after 210 days): Pass | Pass/Fail ([3]; after 270 days): Pass | Pass/Fail ([3]; baseline): Pass | % Label Claim ([3]; after 90 days): 99.2% | Amount Found ([3]; after 90 days): 0.9915% | % Label Claim ([3]; after 120 days): 103.5% | Amount Found ([3]; after 120 days): 1.035% | % Label Claim ([3]; after 180 days): 105.6% | Amount Found ([3]; after 180 days): 1.056% | % Label Claim ([3]; after 210 days): 106.5% | Amount Found ([3]; after 210 days): 1.065% | % Label Claim ([3]; after 270 days): 103.6% | Amount Found ([3]; after 270 days): 1.036% | % Label Claim ([3]; baseline): 100.0% | Amount Found ([3]; baseline): 1.000%
SMILES: CC(=O)OCC(=O)[C@@]1(O)CC[C@H]2[C@@H]3CCC4=CC(=O)C=C[C@]4(C)[C@H]3[C@@H](O)C[C@@]21C [Prednisolone acetate, prednisolone acetate]

Pass/Fail ([1]; after 90 days): Pass | Pass/Fail ([1]; after 180 days): Pass | Pass/Fail ([1]; after 270 days): Pass | Pass/Fail ([1]; after 300 days): Pass | Pass/Fail ([1]; after 365 days): Pass | Pass/Fail ([1]; baseline): Pass | % Label Claim ([1]; after 90 days): 101.9% | Amount Found ([1]; after 90 days): 0.07646% | % Label Claim ([1]; after 180 days): 98.6% | Amount Found ([1]; after 180 days): 0.07398% | % Label Claim ([1]; after 270 days): 92.5% | Amount Found ([1]; after 270 days): 0.06939% | % Label Claim ([1]; after 300 days): 95.5% | Amount Found ([1]; after 300 days): 0.0716% | % Label Claim ([1]; after 365 days): 91.1% | Amount Found ([1]; after 365 days): 0.06834% | % Label Claim ([1]; baseline): 100.0% | Amount Found ([1]; baseline): 0.07499% | Pass/Fail ([2]; after 30 days): Pass | Pass/Fail ([2]; after 60 days): Pass | Pass/Fail ([2]; after 90 days): Fail | Pass/Fail ([2]; after 120 days): Fail | Pass/Fail ([2]; after 150 days): Fail | Pass/Fail ([2]; after 180 days): Fail | Pass/Fail ([2]; baseline): Pass | % Label Claim (Potency) ([2]; after 30 days): 94.9% | Amount Found ([2]; after 30 days): 0.071% | % Label Claim (Potency) ([2]; after 60 days): 92.2% | Amount Found ([2]; after 60 days): 0.0692% | % Label Claim (Potency) ([2]; after 90 days): 87% | Amount Found ([2]; after 90 days): 0.0660% | % Label Claim (Potency) ([2]; after 120 days): 82% | Amount Found ([2]; after 120 days): 0.0618% | % Label Claim (Potency) ([2]; after 150 days): 84% | Amount Found ([2]; after 150 days): 0.0627% | % Label Claim (Potency) ([2]; after 180 days): 78% | Amount Found ([2]; after 180 days): 0.0584% | % Label Claim (Potency) ([2]; baseline): 99.6% | Amount Found ([2]; baseline): 0.0747% | Pass/Fail ([3]; after 90 days): Pass | Pass/Fail ([3]; after 120 days): Pass | Pass/Fail ([3]; after 180 days): Pass | Pass/Fail ([3]; after 210 days): Pass | Pass/Fail ([3]; after 270 days): Pass | Pass/Fail ([3]; baseline): Pass | % Label Claim ([3]; after 90 days): 98.3% | Amount Found ([3]; after 90 days): 0.07373% | % Label Claim ([3]; after 120 days): 100.8% | Amount Found ([3]; after 120 days): 0.07559% | % Label Claim ([3]; after 180 days): 105.6% | Amount Found ([3]; after 180 days): 0.07917% | % Label Claim ([3]; after 210 days): 101.6% | Amount Found ([3]; after 210 days): 0.0762% | % Label Claim ([3]; after 270 days): 97.5% | Amount Found ([3]; after 270 days): 0.07312% | % Label Claim ([3]; baseline): 107.0% | Amount Found ([3]; baseline): 0.08023%
SMILES: Nc1c(CC(=O)O)cccc1C(=O)c1ccc(Br)cc1 [Bromfenac, bromfenac]
